Data set [1] can be described thus: Solubility of compound (1) in aqueous SBE7-β-CD solution or water, HPLC of filtered supernatant. Type of data set: physicochemical. As to the method:
To an aqueous solution of a β-cyclodextrin sulfobutyl ether sodium salt (product of CyDex; hereinafter may be abbreviated as SBE7-β-CD; molecular weight 2162.01; substitution ratio: 7/21 (about 33%)) (26, 40, or 72 mM; 2.5 ml) was added an excessive amount of 3-[2-[4-(3-chloro-2-methylphenyl)-1-piperadinyl]ethyl]-5,6-dimethoxy-1-(4-imidazolylmethyl)-1H-indazole,.2HCl.3.5H2O(hereinafter may be abbreviated as compound (1); molecular weight: 631.0) (400 mg). The mixture was allowed to stand for 7 days in a 25° C. water bath. During the standing period, the mixture was sonicated once a day for 15 minutes, followed by stirring for 2 minutes. On the first, fifth, and seventh days, pH of the mixture was adjusted to 4.0 by addition of adequate amount of HCl. After pH was adjusted on the seventh day, the amount of the entirety of the mixture was adjusted to 5 ml (to thereby achieve a SBE7-β-CD concentration of […]). Six days later, the mixture was subjected to centrifugal separation, to thereby collect a supernatant. […] Similarly, the solubility of the piperazine derivative (I) for water was also determined by HPLC.
(Conditions for High Performance Liquid Chromatography (HPLC))
Mobile phase: 50 mM phosphate buffer solution (pH 5.5)/acetonitrile (1:1)
Column temperature: 40° C.

The test system of the next data set is red blood cells. Kind of data set: Hemolysis activity with red blood cell suspension, absorbance at 588 nm. It is filed as cell-based. The note with it: for hemolysis activity of compound (1): 0.6 mM compound (1), more suppressed at higher cyclodextrin concentration, FIG. 1. As to the method: To 10 mM isotonic phosphate buffer solution (pH 6.0, 2 ml) containing SBE7-β-CD or hydroxypropyl-β-cyclodextrin (product of Nihon Shokuhin Kako; hereinafter may be abbreviated as HP-β-CD; molecular weight 1413; substitution ratio: 4.8/21 (about 23%)) at a different concentration and 0.6 mM compound (1) (concentration that permits complete hemolysis) was added a suspension (0.2 ml) of red blood cells suspension (5%). The mixture was maintained for 30 minutes at 37° C. After centrifugal separation (1000× g, 5 min), oxyhemoglobin and methohemoglobin contained in the supernatant were determined based on the absorbance at 588 nm, to thereby investigate the hemolysis activity of compound (1).

On to `COc1cc2c(CCN3CCN(c4cccc(Cl)c4C)CC3)nn(Cc3c[nH]cn3)c2cc1OC.Cl.Cl` [compound (1), 3-[2-[4-(3-chloro-2-methylphenyl)-1-piperadinyl]ethyl]-5,6-dimethoxy-1-(4-imidazolylmethyl)-1H-indazole,.2HCl.3.5H2O], for which the “Concentration of compound (1) in supernatant” value in data set [1] (Compound (1) alone, solubility for water) is 14.6 mM; in data set [1] (SBE7-β-CD 13 mM, 25° C., pH 4.0) it was 19.0 mM; in data set [1] (SBE7-β-CD 20 mM, 25° C., pH 4.0) it was 25.6 mM; in data set [1] (SBE7-β-CD 36 mM, 25° C., pH 4.0), 56.7 mM. For the same molecule, the “concentration that permits complete hemolysis” value with red blood cells (10 mM isotonic phosphate buffer pH 6.0, 30 minutes at 37° C.) was found to be 0.6 mM. The “hemolysis activity of compound (1)” value with red blood cells (complex formed by addition of HP-β-CD) and in the data set on red blood cells (complex formed by addition of SBE7-β-CD) was “suppressed” in each case.

The values are drawn from US6596706B1, “Piperazine-cyclodextrin complexes” (Daiichi Pharmaceutical Co., Ltd., priority 1997, dated 2003).
